These results are taken from patent US4056626A, “Pharmaceutical composition containing benzofuran derivative” (Kakenyaku Kako Co., Ltd., priority 1971, dated 1977).

One series deals with cardiac arrhythmias. In words: clinical study of cardiac arrhythmias. The series is classed as in vivo, patients. Also noted: key to Treatment evaluation: Extremely effective (++): An outstanding improvement of subjective symptom and an outstanding improvement in electrocardiogram were observed.; Effective (+): Therapeutic effects were clearly observed.; Slightly effective (±): Subjective symptom was fairly decreased and some improvement in electrocardiogram was observed.; Non-effective (-): Any therapeutic effect was not observed. To be noted: oral 30 to 60 mg./day, 10 days to 12 weeks. Here is the method:
The active ingredient, 2-acetyl-7-(2-hydroxy-3-isopropylaminopropoxy)benzofuran hydrochloride, contained in the capsules obtained in Example 47 was administrered orally in a dose of 30 to 60 mg./day for a period of 10 days to 12 weeks. The treatment evaluation was determined according to the following standard: […]

The test system of another series is hypertension. In words: clinical study of hypertension. The series is classed as in vivo. To be noted: four hypertensive patients; oral 60 mg./day, 30 days. An excerpt: To a patient of 68 age who was diagnosed as an essential hypertension was orally administered the active ingredient, 2-acetyl-7-(2-hydroxy-3-isopropyl aminopropoxy)benzofuran hydrochloride, […] As a result, the maximum blood pressure of 210 mmHg and the minimum blood pressure of 88 mmHg before treatment were decreased to 176 mmHg and 76 mmHg after treatment, respectively.

For another series, the system named is angina pectoris. In words: clinical study of angina pectoris. The series is classed as in vivo, patients. Also noted: key: Extremely effective (++): An outstanding improvement of subjective symptom and an outstanding improvement in electrocardiogram were observed.; Effective (+): Therapeutic effects were clearly observed.; Slightly effective (±): Subjective symptom was fairly decreased and some improvement in electrocardiogram was observed.; Non-effective (-): Any therapeutic effect was not observed. Conditions: oral 15 to 60 mg./day, 1 to 10 weeks, per patient, hydrochloride. Here is the method:
A clinical study relating to angina pectoris was made covering the patients shown in Table V. The active ingredient, 2-acetyl-7-(2-hydroxy-3-isopropylaminopropoxy)benzofuran hydrochloride, contained in the capsules obtained in Example 47 was administered orally in a dose of 15 to 60 mg./day for a period of 1 to 10 weeks.

Series [1] relates to tachycardia in hyperthyroidism. In words: clinical study: tachycardia in hyperthyroidism, single administration. To be noted: 14 days; for Pulse rate after treatment, average / Pulse rate difference, average: 12 patients; for Pulse rate after treatment, average / Pulse rate difference / Pulse rate after treatment: in beats/min (unit assumed); for Pulse rate difference: before minus after. The series is classed as in vivo, patients. As to the method: A. A therapeutic effect of the present pharmaceutical composition to tachycardia in hyperthyroidism in case of its signle administration was investigated.
To 12 patients of hyperthyroidism shown in Table VI was orally administered the active ingredient, 2-acetyl-7-(2-hydroxy-3-isopropylaminopropoxy)benzofuran hydrochloride, contained in the capsules obtained in Example 47 in a dose of 30 mg./day (3 times per day) for 14 days. The treatment evaluation was determined according to the following standard:
For reference, a therapeutic effect of an antihyperthyroidism medicament to tachycardia in hyperthyroidism in case of its single administration was investigated.
To 12 patients of hyperthyroidism shown in Table VII was orally administered Mercazol which has been widely employed as an antihyperthyroidism medicament in a dose of 30 mg./day for 14 days.

For series [2], the system named is tachycardia in hyperthyroidism. In words: clinical study: tachycardia in hyperthyroidism, combination with antihyperthyroidism medicament. The series is classed as in vivo, patients. To be noted: in combination with Mercazol, 14 days, per patient. As to the method:
(B) A therapeutic effect of the present pharmaceutical composition in combination with an antihyperthyroidism medicament to tachycardia in hyperthyroidism was investigated.
To six patients of hyperthyroidism shown in Table VIII were orally administered the active ingredient, 2-acetyl-7-(2-hydroxy-3-isopropylaminopropoxy)benzofuran hydrochloride, contained in the capsules obtained in Example 47 and Mercazol in each dose of 30 mg./day (three times per day) for 14 days.

[3] abbreviates: one value per patient, hydrochloride.
The mark [4] stands for this setting: hyperthyroidism, oral 30 mg./day (3 times per day), per patient, hydrochloride.
Where [5] appears, read: Mercazol reference, oral 30 mg./day, per patient.

Where “and” joins values, the source holds several entries; their conditions need not be identical. Equal values may be shown once. Entries after “also recorded” stand apart in the source; their conditions may differ.

As to `CC(=O)c1cc2cccc(OCC(O)CNC(C)C)c2o1.Cl` (centres unmarked) [2-acetyl-7-(2-hydroxy-3-isopropylaminopropoxy)benzofuran hydrochloride], the Treatment evaluation entry was “+ and ± and - and ++” in the series on cardiac arrhythmias (cardiac arrhythmias, per patient, hydrochloride); “± and + and - and ++” in the series on angina pectoris; “++ (Extremely effective (++): The pulse rate before treatment was decreased in a difference of not less than 20 after treatment.); also recorded: + (Effective (+): The pulse rate before treatment was decreased in a difference of 10 to 19 after treatment.)” in series [1] (setting [4]); “+ (Effective (+): The pulse rate before treatment was decreased in a difference of 10 to 19 after treatment.); also recorded: ++ (Extremely effective (++): The pulse rate before treatment was decreased in a difference of not less than 20 after treatment.)” in series [2] (each oral 30 mg./day, hydrochloride). In the series on cardiac arrhythmias (setting [3]), the “Blood pressure after treatment (first figure, systolic)” value is 96 mmHg and 114 mmHg and 104 mmHg and 130 mmHg and 145 mmHg and 154 mmHg and 165 mmHg and 125 mmHg and 108 mmHg and 135 mmHg and 118 mmHg. In addition, the “Blood pressure after treatment (second figure, diastolic)” value in the series on cardiac arrhythmias (setting [3]) was 66 mmHg and 70 mmHg and 62 mmHg and 78 mmHg and 110 mmHg and 75 mmHg and 80 mmHg and 68 mmHg. In the series with cardiac arrhythmias (setting [3]), the “Heart rate/min. after treatment” value is 60 min⁻¹ and 82 min⁻¹ and 68 min⁻¹ and 72 min⁻¹ and 76 min⁻¹ and 64 min⁻¹ and 100 min⁻¹. Further, the Side effect entry in the series with cardiac arrhythmias (per patient) was “No”; in series [1] (hyperthyroidism, oral 30 mg./day (3 times per day), per patient), “No”; in series [2] (each oral 30 mg./day), “No”. For the same compound, in the series with hypertension, the good therapeutic results is “three patients among four, good therapeutic results were obtained”. In addition, the “Pulse rate after treatment, average” value in series [1] (oral 30 mg./day, average before treatment 114.5, standard deviation 11.6) stood at 90.4. Moreover, the Pulse rate difference, average in series [1] (oral 30 mg./day, standard deviation printed 1.1) was determined as 23.8 beats/min. The Pulse rate difference in series [1] (oral 30 mg./day (3 times per day), per patient, hydrochloride) was 22 and 32 and 14 and 30 and 51 and 28 and 24 and 20 and 8 and 16. The “Pulse rate after treatment” value in series [1] (setting [4]) was 80 and 108 and 88 and 100 and 77 and 76 and 84; in series [2] (each oral 30 mg./day (three times per day), hydrochloride, in beats/min (unit assumed)) it was 88 and 76 and 78 and 68 and 82.

In the case of `Cn1cc[nH]c1=S` [Mercazol, reference compound], in series [1] (Mercazol reference, oral 30 mg./day, average before treatment 111.3, standard deviation 8.6), the “Pulse rate after treatment, average” value amounted to 100.2. Further, the Pulse rate difference, average in series [1] (Mercazol reference, oral 30 mg./day, standard deviation printed 0.6) was found to be 12 beats/min. Besides, in series [1] (setting [5]), the Pulse rate difference was 20 and 22 and 10 and 14 and 12 and 4 and 0; the “Pulse rate after treatment” value was 90 and 110 and 100 and 108 and 116.
